# In ChEMBL document CHEMBL4842334, “Tropolone-Bearing Sesquiterpenes from Juniperus chinensis: Structures, Photochemistry and Bioactivity” (2021):
# Calls of active or inactive are those of the source. The rule behind the calls is not given here.
# Key:
# [1] = test system: HepG2; experiment: Inhibition of lipid accumulation in human HepG2 cells at 20 uM incubated for 24 hrs by Oil Red O staining analysis relative to oleic acid; type: functional
# [2] = test system: HepG2; experiment: Increase in glycerol release in human HepG2 cells at 25 uM incubated for 24 hrs by microplate reader analysis; type: functional, cell-based
# [3] = Reduction in melanin production in mouse Melan-a cells at 5 uM measured after 72 hrs by microplate reader; type: functional
# [4] = test system: Melan-a; experiment: Reduction in MITF protein expression in mouse Melan-a cells at 5 uM measured after 72 hrs by Western blot analysis; type: functional, cell-based
# [5] = test system: Melan-a; experiment: Reduction in tyrosinase protein expression in mouse Melan-a cells at 5 uM measured after 72 hrs by Western blot analysis; type: functional, cell-based
# [6] = test system: Melan-a; experiment: Reduction in TRP1 protein expression in mouse Melan-a cells at 5 uM measured after 72 hrs by Western blot analysis; type: functional, cell-based
# [7] = molecular target: T1, Tyrosinase (Agaricus bisporus) (UniProt O42713); experiment: Inhibition of mushroom tyrosinase activity at 5 uM measured after 1 hr by microplate reader analysis
# T1 sequence (whole entry): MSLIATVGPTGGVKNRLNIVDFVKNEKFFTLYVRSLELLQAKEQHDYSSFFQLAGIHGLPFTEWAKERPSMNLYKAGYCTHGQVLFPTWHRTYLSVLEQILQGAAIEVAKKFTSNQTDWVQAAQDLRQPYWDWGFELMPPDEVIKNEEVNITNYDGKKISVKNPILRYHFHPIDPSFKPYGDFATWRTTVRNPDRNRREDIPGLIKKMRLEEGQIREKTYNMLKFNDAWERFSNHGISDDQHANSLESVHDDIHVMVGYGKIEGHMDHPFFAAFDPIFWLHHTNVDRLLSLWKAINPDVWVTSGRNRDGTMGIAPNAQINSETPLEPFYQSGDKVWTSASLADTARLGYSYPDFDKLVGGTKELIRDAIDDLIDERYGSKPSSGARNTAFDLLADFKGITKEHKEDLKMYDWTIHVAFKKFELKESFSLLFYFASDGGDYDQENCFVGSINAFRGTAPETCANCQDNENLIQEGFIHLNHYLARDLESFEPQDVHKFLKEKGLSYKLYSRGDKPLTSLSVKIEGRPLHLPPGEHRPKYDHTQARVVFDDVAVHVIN
Structure (SMILES),inhibition at 20 µM [1],Activity [2],inhibition at 5 µM [3],Activity [4],Activity [5],Activity [6],inhibition [7]
C/C(=C\C[C@]12C=C[C@@]1(O)C(=O)C=C2C(C)C)CO,29%,Active,,,,,
C/C(=C\C[C@@]12C=C[C@]1(O)C(=O)C=C2C(C)C)CO,29%,Active,,,,,
C/C(=C\CC1=C[C@@H]2C(=O)C(O)=C[C@]12C(C)C)CO,29%,,,,,,
C/C(=C\Cc1ccc(=O)c(O)cc1C(C)C)CO,29%,Active,10%,Active,Active,Active,Active
C/C(=C\CC1=C[C@H]2C(=O)C(O)=C[C@@]12C(C)C)CO,29%,,,,,,
